Patent US20090075976A1, “Association between an anti-atherothrombotic and an angiotensin-converting enzyme inhibitor” (LES LABORATOIRES SERVIER, priority 2007, published 2009)
Where a name gives a salt, the structure may show the parent alone.

Legend:
[1] = test system: human E-selectin promoter; assay: E-selectin promoter activity (luciferase reporter) in TNF-α-induced HUVEC cells; format: cell-based; details: for Activity in cpm %/Control MEAN ± SDM: TNF-α-induced (100 U/ml); for effect on expression of the E-selectin gene: compound alone, at the concentrations tested (up to 100 μM), TNF-α
Experimental: The study is carried out on human endothelial cells HUVEC (Human Umbilical Vein Endothelial Cells, Clonetics Co). The cells are cultured in an EBM2 medium (Endothelial Basal Medium, Clonetics Co) supplemented with 2% FCS (Fœtal Calf Serum) and EGM2 (Endothelial Growth Medium, Clonetics Co).
An 850 bp fragment, corresponding to the human E-selectin promoter, extending from the nucleotides at positions −800 to +50 (accession no. M64485; Tamaru et al., E-selectin gene expression is induced synergistically with the coexistence of activated classic protein kinase C and signals elicited by interleukin-1β but not tumor necrosis factor-α; 1999, J. Biol. Chem, 274, 3753-3763), was amplified by PCR and sub-cloned. In a final reaction volume of 100 μl, 5 units of native Pyrococcus furiosus (Pfu) DNA polymerase (Stratagene) were placed in the presence of 1 μg of human genomic DNA (Clontech), 200 μM of dNTP (deoxynucleotide triphosphate) (Clontech) and 200 ng of primers in a medium containing the buffer specific to the enzyme. The set of primers used is as follows: […]
The PGL3/E-selectin plasmid is transfected into HUVEC cells before the fourth passage. Transfection is carried out in plates having cells at 50% confluence, depositing Lipofectin® (Invitrogen) and 3 μg of PGL3/E-selectin plasmid in each of the wells. The Lipofectin® (6 μg/ml) is previously activated for 30 minutes in an OPTI-MEM medium (GIBCO™) and then brought into contact for 15 minutes with the plasmids previously diluted with the medium. The cells are incubated for 4 hours at 37° C. in an atmosphere containing 5% CO2 and […]. The transfection medium is withdrawn and replaced overnight by an enriched culture medium in order to stabilise the cells.
Expression of the reporter genes is induced over 4 hours in an M199 medium without serum (GIBCO™). The cells are scratched and lysed in a lysis buffer (Dual-Luciferase® kit, Promega) and then held at −20° C.
The induction phase is 4 hours for the HUVEC cells in the presence of 100 U/ml of Tumour Necrosis Factor-α (TNF-α). During that induction phase, there are added different concentrations of, on the one hand: • perindoprilate (0 to 100 µM), terutroban sodium salt (0 to 100 μM), or terutroban sodium salt (30 μM)+different concentrations of perindoprilate (10, 30 and 100 μM) (Table 1) and, on the other hand: • ramiprilate (0 to 100 μM), terutroban sodium salt (0 to 100 μM), or terutroban sodium salt (10 μM)+different concentrations of ramiprilate (30 and 100 μM) (Table 2).
The E-selectin promoter activity is determined by quantification of the luciferase activity produced (Dual-Luciferase® kit, Promega). A solution of luciferin, the substrate of the firefly luciferase, is added to each well. […] The plate is incubated for 10 minutes in the dark because the luciferase activity is light-sensitive, and then a luminometer reading is started in order to quantify the photons emitted (Wallac, Perkin Elmer), the result obtained being the average cpm (counts per minute) over a period of 5 seconds.
(§1) The activity of the E-selectin promoter is measured under control conditions and in the presence of products in the induced state.
as §1

CD rats [2] = assay: Arterial thrombosis in the rat (FeCl3-induced, aorta); format: in vivo
Experimental: The thrombosis technique used is that of Tanaka and co-workers (Eur. J. Pharmacol., 2008; 401, 413-18). CD rats (350-375 g) are anaesthetised using pentobarbital 50 mg/kg IP and are placed on a thermostatically controlled blanket. After laparotomy, the aorta is exposed. […] Some animals are treated with terutroban (compound A) in the form of the sodium salt at a dose of 0.1 mg/kg, others with perindopril (compound B) in the form of the tert-butylamine salt at a dose of 1 mg/kg, and others with terutroban in the form of the sodium salt (compound A) at a dose of 0.1 mg/kg and perindopril (compound B) in the form of the tert-butylamine salt at 1 mg/kg.

CD rats [3] = assay: Arterial pressure in the anaesthetised rat; format: in vivo; details: recorded 1 hour after treatment, controls 131±7 mmHg
Experimental: After anaesthesia using pentobarbital (50 mg/kg IP), the animal is placed on a thermostatically controlled blanket. The carotid artery is exposed and a catheter is introduced in order to monitor the arterial pressure with the aid of a Gould sensor connected to AcqKnowledge software. […] Some animals are treated with terutroban (compound A) in the form of the sodium salt at a dose of 0.1 mg/kg, others with perindopril (compound B) in the form of the tert-butylamine salt at a dose of 0.3 mg/kg, and others with terutroban (compound A) in the form of the sodium salt at 0.1 mg/kg and perindopril (compound B) in the form of the tert-butylamine salt at 0.3 mg/kg.

renal fibronectin = assay: Expression of renal fibronectin in diabetic ApoE−/− mice (real-time PCR); format: in vivo; details: 6 weeks
Experimental: (§2) Four groups of 9 mice deficient in apolipoprotein E (ApoE^−/−, spontaneously developing atheroma plaques in their aortas) were used in this study. At the age of 8 weeks, the mice are made diabetic by 5 intraperitoneal injections of 70 mg/kg of streptozotocin over 5 days. At the ninth week, the animals are divided into four groups: an untreated control group, a group treated with terutroban (compound A) sodium salt (1 mg/kg/day in the food), a group treated with perindopril (compound B) tert-butylamine salt (0.1 mg/kg/day in the drinking water), and a group treated with the association of terutroban (compound A) sodium salt (1 mg/kg/day in the food) and perindopril (compound B) tert-butylamine salt (0.1 mg/kg/day in the drinking water). For the expression of renal fibronectin, the mice are treated for 6 weeks and then sacrificed after anaesthesia using isoflurane. For the expression of aortic VCAM-1, the mice are treated for 13 weeks and then sacrificed. The aortas and the right-side kidneys are removed, dissected and frozen in liquid nitrogen. […] Expression of aortic VCAM-1 and expression of renal fibronectin are quantified by real-time PCR and normalised with respect to 3 reference genes: β-actin, hypoxanthine-guanine phosphoribosyl transferase (HPRT) and glyceraldehyde phosphate dehydrogenase (GAPDH). […]

aortic VCAM-1 = assay: Expression of aortic VCAM-1 in diabetic ApoE−/− mice (real-time PCR); format: in vivo; details: 13 weeks
Experimental: as §2, with “of” for “of renal fibronectin, the mice are treated for 6 weeks and then sacrificed after anaesthesia using isoflurane. For the expression of”, “nitrogen. The tissues are cryo-ground and total RNA is extracted using the RNeasy® micro kit (Qiagen).” for “nitrogen.”

VCAM-1 = details: diabetic atheromatous Apo E−/− mice; cited from earlier work
[4] = 0.1 mg/kg/day in the drinking water

Compound: Cc1ccc2c(c1CCC(=O)O)CC[C@@H](NS(=O)(=O)c1ccc(Cl)cc1)C2 [Compound A, sodium salt, 3-[(6R)-6-[[(4-chlorophenyl)sulphonyl]amino]-2-methyl-5,6,7,8-tetrahydronaphth-1-yl]propanoic acid]
- Activity in cpm %/Control MEAN ± SDM ([1]; compound alone 10 μM): 105.8 ± 7.9%
- Activity in cpm %/Control MEAN ± SDM ([1]; compound alone 30 μM): 99.5 ± 9.1%
- Activity in cpm %/Control MEAN ± SDM ([1]; compound alone 100 μM): 88.8 ± 8.9%
- effect on expression of the E-selectin gene [1]: no effect
- weight of clot (CD rats [2]; 0.1 mg/kg, controls 17.1±1.3 mg): 16.8 ± 1.3 mg
- arterial pressure (CD rats [3]; 0.1 mg/kg): 126±7 mmHg
- expression of the renal fibronectin gene versus 100% without treatment (renal fibronectin; 1 mg/kg/day in the food): 69±16%
- residual expression of the aortic VCAM-1 gene versus 100% without treatment (aortic VCAM-1; 1 mg/kg/day in the food): 88±22%
- endothelial expression of the adhesion molecule VCAM-1 (VCAM-1): significantly reduced

Compound: CCC[C@H](N[C@@H](C)C(=O)N1[C@H](C(=O)O)C[C@@H]2CCCC[C@@H]21)C(=O)O [Compound B, active metabolite, perindoprilate]
- Activity in cpm %/Control MEAN ± SDM ([1]; compound alone 10 μM): 99.5 ± 7.8%
- Activity in cpm %/Control MEAN ± SDM ([1]; compound alone 30 μM): 100.3 ± 9.2%
- Activity in cpm %/Control MEAN ± SDM ([1]; compound alone 100 μM): 82.8 ± 11.5%
- effect on expression of the E-selectin gene [1]: no effect

Compound: CCC[C@H](N[C@@H](C)C(=O)N1[C@H](C(=O)O)C[C@@H]2CCCC[C@@H]21)C(=O)OCC [perindopril]
- weight of clot (CD rats [2]; 1 mg/kg, controls 15.6±0.7 mg): 15.2 ± 1.1 mg
- arterial pressure (CD rats [3]; 0.3 mg/kg): 120±9 mmHg
- expression of the renal fibronectin gene versus 100% without treatment (renal fibronectin; [4]): 86±9.9%
- residual expression of the aortic VCAM-1 gene versus 100% without treatment (aortic VCAM-1; [4]): 76±21%

Compound: C[C@H](N[C@@H](CCc1ccccc1)C(=O)O)C(=O)N1[C@H](C(=O)O)C[C@@H]2CCC[C@@H]21 [Compound C, active metabolite, ramiprilate]
- Activity in cpm %/Control MEAN ± SDM ([1]; compound alone 30 μM): 111.1 ± 17.2%
- Activity in cpm %/Control MEAN ± SDM ([1]; compound alone 100 μM): 114.6 ± 38.9%
- effect on expression of the E-selectin gene [1]: no effect
